Counter-ions that a name gives are not always drawn.
How the values were obtained:
E. acervulina = assay: Coccidiosis in chicks, minimum effective dose (oocyst excretion, clinical symptoms, mortality); format: in vivo, Eimeria acervulina
E. maxima = assay: as above; format: in vivo, Eimeria maxima
E. tenella = assay: as above; format: in vivo, Eimeria tenella
E. falciformis = assay: Coccidiosis in mice, minimum effective dose (oocyst excretion, clinical symptoms, mortality); format: in vivo, Eimeria falciformis; details: for minimal effective dose: Eimeria falciformis, mice (15 g), infected with 10,000 sporulated oocysts, treated on days 1, 2, 3, 6, 7 and 8 after infection, read-out: wirksame Mindestdosierung E. falciformis
Source text: Die coccidiostatische Aktivität von Verbindungen, die für die Verbindungen gemäß der Erfindung repräsentativ sind, wird in Tabelle 1 veranschaulicht, wo Eimeria tenella (Blinddarm-Coccidiose/Hühner), Eimeria acervulina und Eimeria maxima (Dünndarm-Coccidiose von Hühnern) als Beispiele der Aktivität im Falle der Coddidiose bei Geflügel genannt sind, während Eimeria falciformus (Coccidiose/Mäuse) als Coccidium bei Säugetieren angegeben ist.
Die Behandlung der Infektion mit Eimeria falciformis bei Mäusen, die als Beispiel der Coccidiose bei Säugetieren erwähnt ist, fand am ersten, zweiten, dritten, sechsten, siebten und achten Tag nach der Infektion statt. Die Infektion erfolgte mit.10,000 sporulierten Oozysten pro Maus (Gewicht 15 g). Im Falle der unbehandelten Vergleichstiere fanden massive Ausscheidung von Oozysten, blutiger Durchfall und 30 % Sterblichkeit der Tiere, die der Infektion zuzuschreiben waren, vom siebten Tage nach der Infektion an statt.
Als wirksam wurden diejenigen Dosen angesehen, die die Ausscheidung von Oozysten und/oder klinische Symptome der Coccidiose einschließlich der Mortalität vollständig oder in hohem Maße verhüteten.

[1] = chicks 9 to 11 days old, infected with 4000 sporulated oocysts, compound given from 3 days before to 8 days after infection

In the case of `CCCc1ncc(C[n+]2ccccc2C)c(N)n1` [A, 1[(4-Amino-2-propyl-5-pyrimidinyl)-methyl]-2-picoliniumchloridhydrochlorid, reference compound], the “wirksame Mindestdosierung E. acervulina” value (E. acervulina; [1]) is reported as 125 ppm, the “wirksame Mindestdosierung E. maxima” value (E. maxima; [1]) is reported as 125 ppm and the “wirksame Mindestdosierung E. tenella” value (E. tenella; [1]) is reported as 125 ppm. It also gave a minimal effective dose (E. falciformis) of 500 mg/kg.
`CCC1(C2OC(C3OC(O)(CO)C(C)CC3C)CC2C)CCC(C2(C)CCC3(CC(O)C(C)C(C(C)C(OC)C(C)C(=O)O)O3)O2)O1` (centres unmarked) [M, reference compound] was tested, and the “wirksame Mindestdosierung E. acervulina” value (E. acervulina; in vivo) was 50 ppm, the “wirksame Mindestdosierung E. maxima” value (E. maxima; in vivo) was 50 ppm and the “wirksame Mindestdosierung E. tenella” value (E. tenella; in vivo) was 75 ppm. The “wirksame Mindestdosierung E. falciformis” value (E. falciformis; in vivo) was 250 mg/kg.
With `Cn1c(=O)[nH]c(=O)n(-c2cc(Cl)c(Oc3ccc(SCC(F)(F)F)cc3)c(Cl)c2)c1=O` [[drawing] r3] the “wirksame Mindestdosierung E. acervulina” value (E. acervulina; [1]) was 25 ppm, the “wirksame Mindestdosierung E. maxima” value (E. maxima; [1]) was 25 ppm and the “wirksame Mindestdosierung E. tenella” value (E. tenella; [1]) was 50 ppm. The minimal effective dose (E. falciformis) was 1 mg/kg.
`COc1cc(-n2c(=O)[nH]c(=O)n(C)c2=O)ccc1Oc1ccc(SCC(F)(F)F)cc1` [[drawing] r4] was tested, and the “wirksame Mindestdosierung E. acervulina” value (E. acervulina; [1]) was 50 ppm, the “wirksame Mindestdosierung E. maxima” value (E. maxima; [1]) was 50 ppm and the “wirksame Mindestdosierung E. tenella” value (E. tenella; [1]) was 50 ppm. The minimal effective dose (E. falciformis) was 25 mg/kg.
For `Cn1c(=O)[nH]c(=O)n(-c2cc(Cl)c(Oc3ccc(S(=O)(=O)CC(F)(F)F)cc3)c(Cl)c2)c1=O` [[drawing] r5], the “wirksame Mindestdosierung E. acervulina” value (E. acervulina; [1]) was 10 ppm, the “wirksame Mindestdosierung E. maxima” value (E. maxima; [1]) was 10 ppm and the “wirksame Mindestdosierung E. tenella” value (E. tenella; [1]) was 10 ppm. For the same molecule, the minimal effective dose (E. falciformis) was 100 mg/kg.

Source: patent EP0123217A1, “1-(4-(4-(Fluoralkylmethylthio or sulfinyl or sulfinyl-)phenoxy)phenyl)-1,3,5-triazine-2,4,6(1H-3H,5H)triones, process for their preparation and their use as agents against coccidiosis” (BAYER AG, priority 1983, dated 1984)
